Results: patent US7517874B2 (priority 2007, dated 2009)
Read-outs that look alike come from different tables or passages of the source.

Columns and labels:
rat CB2 receptor (rCB2) = target: T1, rat CB2 receptor (rCB2) (Rattus norvegicus, UniProt Q9QZN9); assay: cell-based; format: cell-based; settings: for +/− RCB2: agonist or inverse agonist at rCB2
T1 sequence (Q9QZN9 1-360): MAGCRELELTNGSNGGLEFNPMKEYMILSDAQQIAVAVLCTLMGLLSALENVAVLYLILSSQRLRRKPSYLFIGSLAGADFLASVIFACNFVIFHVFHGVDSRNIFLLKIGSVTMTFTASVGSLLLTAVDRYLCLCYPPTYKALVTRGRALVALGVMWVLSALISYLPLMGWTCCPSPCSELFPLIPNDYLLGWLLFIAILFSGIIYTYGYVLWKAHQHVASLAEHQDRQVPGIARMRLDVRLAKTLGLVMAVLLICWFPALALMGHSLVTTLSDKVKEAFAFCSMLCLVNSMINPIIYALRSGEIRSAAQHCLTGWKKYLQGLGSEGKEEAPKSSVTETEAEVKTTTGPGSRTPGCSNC
How it was run: (§1)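 Agonism or inverse agonism was assessed as change in intracellular cAMP in CHO-K1 cells expressing human CB1 or rat CB2 (genomic DNA, pcDNA3.1).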

[1] = target: human CB1 receptor (hCB1) (Homo sapiens, UniProt P21554); assay: cell-based; format: cell-based; settings: for +/− HCB1: agonist or inverse agonist at hCB1
human CB1 receptor (hCB1), sequence (P21554 whole entry): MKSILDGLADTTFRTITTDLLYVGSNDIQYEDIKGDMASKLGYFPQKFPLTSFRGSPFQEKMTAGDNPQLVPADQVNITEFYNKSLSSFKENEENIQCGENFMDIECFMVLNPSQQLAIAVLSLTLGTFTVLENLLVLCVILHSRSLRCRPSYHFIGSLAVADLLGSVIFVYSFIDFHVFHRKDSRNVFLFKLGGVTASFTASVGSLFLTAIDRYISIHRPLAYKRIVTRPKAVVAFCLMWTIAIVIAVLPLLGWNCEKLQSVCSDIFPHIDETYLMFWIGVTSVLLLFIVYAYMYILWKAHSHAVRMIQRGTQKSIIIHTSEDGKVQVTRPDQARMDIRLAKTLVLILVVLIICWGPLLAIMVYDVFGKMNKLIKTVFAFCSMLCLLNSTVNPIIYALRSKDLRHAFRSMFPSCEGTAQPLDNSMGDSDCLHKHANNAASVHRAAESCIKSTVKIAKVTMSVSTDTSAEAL
How it was run: as §1

[2] = groups >100 nM-10 μM and >10 μM, cAMP, CHO-K1 hCB1, read-out: EC50 HCB1

Row | Compound | +/− RCB2 (rat CB2 receptor (rCB2)) | EC50 [1] [nM] | other results
1 | CC(C)(CO)CNC(=O)c1nc(-c2ccccc2)n2c1CNCC2 [Compound 29, N-(3-hydroxy-2,2-dimethylpropyl)-3-phenyl-5,6,7,8-tetrahydroimidazo[1,5-a]pyrazine-1-carboxamide] | − |  | EC50 [1, 2]: > 10000 nM
2 | CN1CCCn2c(-c3ccccc3)nc(C(=O)Nc3cc(C(C)(C)C)on3)c2C1 [Compound 595, N-(5-tert-butylisoxazol-3-yl)-8-methyl-3-phenyl-6,7,8,9-tetrahydro-5H-imidazo[1,5-a][1,4]diazepine-1-carboxamide] | − | > 10000 | 
3 | CNC(=O)[C@@H](NC(=O)c1nc(CCCN2CCCC2)n2c1CN(C)CC2)C(C)(C)C [Compound 308, (S)-N-(3,3-dimethyl-1-(methylamino)-1-oxobutan-2-yl)-7-methyl-3-(3-(pyrrolidin-1-yl)propyl)-5,6,7,8-tetrahydroimidazo[1,5-a]pyrazine-1-carboxamide] | − | > 10000 | 
4 | CNC(=O)[C@H](Cc1cscn1)NC(=O)c1nc(-c2cc(F)c(F)cc2F)n2c1CN(C)CCC2 [Compound 592, (S)-8-methyl-N-(1-(methylamino)-1-oxo-3-(thiazol-4-yl)propan-2-yl)-3-(2,4,5-trifluorophenyl)-6,7,8,9-tetrahydro-5H-imidazo[1,5-a][1,4]diazepine-1-carboxamide] |  | > 10000 | EC50 (rat CB2 receptor (rCB2)): > 10000 nM
5 | CNC(=O)[C@@H](NC(=O)c1nc(-c2ccc(Cl)cc2F)n2c1CN(C1CCN(C(C)=O)CC1)CCC2)C(C)(C)C [Compound 527, (S)-8-(1-acetylpiperidin-4-yl)-3-(4-chloro-2-fluorophenyl)-N-(3 3-dimethyl-1-(methylamino)-1-oxobutan-2-yl)-6,7,8,9-tetrahydro-5H-imidazo[1,5-a][1,4]diazepine-1-carboxamide] | − | > 10000 | 
6 | CNC(=O)[C@@H](NC(=O)c1nc(-c2ccc(C)cc2F)n2c1CNCCC2)C(C)(C)C [Compound 316, (S)-N-(3,3-dimethyl-1-(methylamino)-1-oxobutan-2-yl)-3-(2-fluoro-4-methylphenyl)-6,7,8,9-tetrahydro-5H-imidazo[1,5-a][1,4]diazepine-1-carboxamide] | − | > 10000 | 
7 | CC(C)C[C@H](NC(=O)c1nc(C2CCCCC2)n2c1CN(C)CCC2)C(N)=O [Compound 570, (S)-N-(1-amino-4-methyl-1-oxopentan-2-yl)-3-cyclohexyl-8-methyl-6,7,8,9-tetrahydro-5H-imidazo[1,5-a][1,4]diazepine-1-carboxamide] | + |  | +/− HCB1 [1]: +
8 | CN1CCn2c(-c3ccc(Cl)cc3F)nc(C(=O)N3CCC(n4cc(-c5ccccc5)[nH]c4=O)CC3)c2C1 [Compound 227, 1-(1-(3-(4-chloro-2-fluorophenyl)-7-methyl-5,6,7,8-tetrahydroimidazo[1,5-a]pyrazine-1-carbonyl)piperidin-4-yl)-4-phenyl-1H-imidazol-2(3H)-one] | − |  | EC50 [1, 2]: > 10000 nM
9 | CNC(=O)[C@@H](NC(=O)c1nc(C2=CCN(C(=O)OC(C)(C)C)CC2)n2c1CN(C)CCC2)C(C)(C)C [Compound 388, (S)-tert-butyl 4-(1-(3,3-dimethyl-1-(methylamino)-1-oxobutan-2-ylcarbamoyl)-8-methyl-6,7,8,9-tetrahydro-5H-imidazo[1,5-a][1,4]diazepin-3-yl)-5,6-dihydropyridine-1(2H)-carboxylate] |  | > 10000 | EC50 (rat CB2 receptor (rCB2)): > 10000 nM
10 | CNC(=O)[C@@H](NC(=O)c1nc(-c2ccc(C#N)cc2)n2c1CN(C)CC2)C(C)(C)C [Compound 254, (S)-3-(4-cyanophenyl)-N-(3,3-dimethyl-1-(methylamino)-1-oxobutan-2-yl)-7-methyl-5,6,7,8-tetrahydroimidazo[1,5-a]pyrazine-1-carboxamide] | − | > 10000 | 
11 | CC(C)CN1CCn2c(-c3ccccc3)nc(C(=O)NCC(C)(C)C)c2C1 [Compound 58, 7-isobutyl-N-neopentyl-3-phenyl-5,6,7,8-tetrahydroimidazo[1,5-a]pyrazine-1-carboxamide] | − | > 10000 | 
12 | CNC(=O)[C@@H](NC(=O)c1nc(C2=CCCC2)n2c1CN(C)CC2)C(C)(C)C [Compound 238, (S)-3-cyclopentenyl-N-(3,3-dimethyl-1-(methylamino)-1-oxobutan-2-yl)-7-methyl-5,6,7,8-tetrahydroimidazo[1,5-a]pyrazine-1-carboxamide] |  |  | EC50 (rat CB2 receptor (rCB2)): > 10000 nM; +/− HCB1 [1]: +
13 | CN1CCn2c(-c3ccc(Cl)cc3F)nc(C(=O)N3CCN(C(=O)c4ccccc4)CC3)c2C1 [Compound 210, (4-benzoylpiperazin-1-yl)(3-(4-chloro-2-fluorophenyl)-7-methyl-5,6,7,8-tetrahydroimidazo[1,5-a]pyrazin-1-yl)methanone] |  |  | EC50 (rat CB2 receptor (rCB2); groups >100 nM-10 μM and >10 μM, cAMP, CHO-K1 rCB2, read-out: EC50 RCB2): > 10000 nM; EC50 [1, 2]: > 10000 nM
14 | CNC(=O)[C@@H](NC(=O)c1nc(-c2cc(F)c(F)cc2F)n2c1CN(C)CCC2)C1CCCCC1 [Compound 541, (S)-N-(1-cyclohexyl-2-(methylamino)-2-oxoethyl)-8-methyl-3-(2,4,5-trifluorophenyl)-6,7,8,9-tetrahydro-5H-imidazo[1,5-a][1,4]diazepine-1-carboxamide] | + |  | +/− HCB1 [1]: +
15 | CNC(=O)[C@@H](NC(=O)c1nc(-c2ccccc2)n2c1CN(C(=O)Nc1ccccc1)CC2)C(C)(C)C [Compound 194, (S)-N1-(3,3-dimethyl-1-(methylamino)-1-oxobutan-2-yl)-N7,3-diphenyl-5,6-dihydroimidazo[1,5-a]pyrazine1,7-(8H)-dicarboxamide] |  | > 10000 | EC50 (rat CB2 receptor (rCB2)): > 10000 nM
16 | CNC(=O)[C@@H](NC(=O)c1nc(-c2ccccc2)n2c1CN(c1ncccn1)CCC2)C(C)(C)C [Compound 483, (S)-N-(3,3-dimethyl-1-(methylamino)-1-oxobutan-2-yl)-3-phenyl-8-(pyrimidin-2-yl)-6,7,8,9-tetrahydro-5H-imidazo[1,5-a][1,4]diazepine-1-carboxamide] | − |  | +/− HCB1 [1]: +
17 | CNC(=O)[C@@H](NC(=O)c1nc(-c2ccccc2)n2c1CN(CCO)CC2)C(C)(C)C [Compound 153, (S)-N-(3,3-dimethyl-1-(methylamino)-1-oxobutan-2-yl)-7-(2-hydroxyethyl)-3-phenyl-5,6,7,8-tetrahydroimidazo[1,5-a]pyrazine-1-carboxamide] | − | > 10000 | 
18 | CN1CCCn2c(-c3ccc(Cl)c(F)c3)nc(C(=O)N[C@@H](CC(C)(C)C)C(N)=O)c2C1 [Compound 588, (S)-N-(1-amino-4,4-dimethyl-1-oxopentan-2-yl)-3-(4-chloro-3-fluorophenyl)-8-methyl-6,7,8,9-tetrahydro-5H-imidazo[1,5-a][1,4]diazepine-1-carboxamide] | + |  | +/− HCB1 [1]: +
19 | CN(C)C(=O)[C@@H](NC(=O)c1nc(-c2ccccc2)n2c1CNCC2)C(C)(C)C [Compound 196, (S)-N-(1-(dimethylamino)-3,3-dimethyl-1-oxobutan-2-yl)-3-phenyl-5,6,7,8-tetrahydroimidazo[1,5-a]pyrazine-1-carboxamide] | − | > 10000 | 
20 | CNC(=O)[C@@H](NC(=O)c1nc(C2=CCCCC2)n2c1CN(C)CCC2)C(C)(C)C [Compound 396, (S)-3-cyclohexenyl-N-(3,3-dimethyl-1-(methylamino)-1-oxobutan-2-yl)-8-methyl-6,7,8,9-tetrahydro-5H-imidazo[1,5-a][1,4]diazepine-1-carboxamide] | + | > 10000 | 
21 | CNC(=O)[C@@H](NC(=O)c1nc(C2=CCOCC2)n2c1CN(C)CCC2)C(C)(C)C [Compound 594, (S)-3-(3,6-dihydro-2H-pyran-4-yl)-N-(3,3-dimethyl-1-(methylamino)-1-oxobutan-2-yl)-8-methyl-6,7,8,9-tetrahydro-5H-imidazo[1,5-a][1,4]diazepine-1-carboxamide] | + |  | +/− HCB1 [1]: +
22 | CCN1CCCn2c(-c3ccccc3)nc(C(=O)N[C@H](C(=O)NC)C(C)(C)C)c2C1 [Compound 318, (S)-N-(3,3-dimethyl-1-(methylamino)-1-oxobutan-2-yl)-8-ethyl-3-phenyl-6,7,8,9-tetrahydro-5H-imidazo[1,5-a][1,4]diazepine-1-carboxamide] | + | > 10000 | 
23 | CNC(=O)[C@@H](NC(=O)c1nc(-c2ccccc2Cl)n2c1CNCC2)C(C)(C)C [Compound 10, (S)-3-(2-chlorophenyl)-N-(3,3-dimethyl-1-(methylamino)-1-oxobutan-2-yl)-5,6,7,8-tetrahydroimidazo[1,5-a]pyrazine-1-carboxamide] | + | > 10000 | 
24 | CNC(=O)[C@@H](NC(=O)c1nc(-c2ccc(C)cc2F)n2c1CN(C)CC2)C(C)(C)C [Compound 249, (S)-N-(3,3-dimethyl-1-(methylamino)-1-oxobutan-2-yl)-3-(2-fluoro-4-methylphenyl)-7-methyl-5,6,7,8-tetrahydroimidazo[1,5-a]pyrazine-1-carboxamide] | − | > 10000 | 
25 | C[C@@H](NC(=O)c1nc(-c2ccccc2)n2c1CN(CCO)CC2)C1CCCCC1 [Compound 140, (R)-N-(1-cyclohexylethyl)-7-(2-hydroxyethyl)-3-phenyl-5,6,7,8-tetrahydroimidazo[1,5-a]pyrazine-1-carboxamide] | − | > 10000 | 
